This is an account of results in BindingDB's records for doi:10.1021/jm00387a019 (1987).

This assay concerns the target Voltage-dependent L-type calcium channel subunit alpha-1C (Sus scrofa). The assay is described as follows: Inhibition of [3H]nitrendipine binding to L-type calcium channel dihydropyridine site of porcine cardiac sarcolemma membrane vesicles.
What is called Ki is a measure of affinity in units of concentration, obtained from inhibition or displacement. `CCOC(=O)C1=C(C)N=C(C)C(=C(O)OCC)C1c1cc([N+](=O)[O-])ccc1SC` (centres undefined): the Ki was determined as 80 nM. In the case of `CCOC(=O)[C@H]1[C@H]2/C(=C(\O)OCC)C(C)=N[C@]1(C)Sc1ccccc12`, the inhibitory constant (Ki) was 5000 nM. On to `CCOC(=O)[C@@H]1[C@H]2/C(=C(\O)OCC)C(C)=N[C@]1(C)Sc1cc([N+](=O)[O-])ccc12`, for which the Ki turned out to be 3000 nM. With `CCOC(=O)[C@H]1[C@H]2/C(=C(\O)OCC)C(C)=N[C@]1(C)Sc1cc([N+](=O)[O-])ccc12` the figure was 5000 nM. `CCOC(=O)[C@H]1[C@H]2/C(=C(\O)OCC)C(C)=N[C@]1(C)Sc1ccc([N+](=O)[O-])cc12`: the Ki was 650 nM.

Take `CCOC(=O)[C@H]1[C@H]2/C(=C(\O)OCC)C(C)=N[C@]1(C)Sc1c2cccc1[N+](=O)[O-]`: the Ki stood at 250 nM. With `CCOC(=O)[C@@H]1[C@H]2/C(=C(\O)OCC)C(C)=N[C@]1(C)Sc1ccccc12` the figure was 500 nM; with `CCOC(=O)[C@@H]1[C@H]2/C(=C(\O)OCC)C(C)=N[C@]1(C)Sc1ccc([N+](=O)[O-])cc12`, 30 nM; with `CCOC(=O)[C@@H]1[C@H]2/C(=C(\O)OCC)C(C)=N[C@]1(C)Sc1c2cccc1[N+](=O)[O-]`, 6000 nM.
